Laboratory results taken from the supplement of paper PMC9663587.

Columns and labels:
MGH312 = experiment: area over the GR curve, 72 h; higher = more effect;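 also: Dye Drop or Deep Dye Drop imaging of viable cells in 384-well plates (Hoechst nuclei, LIVE/DEAD dye), nine half-log doses, GR normalized to DMSO controls and time-zero plates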
EVSAT = experiment: area over the GR curve, 72 h; higher = more effect;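 also: Dye Drop or Deep Dye Drop imaging of viable cells in 384-well plates (Hoechst nuclei, LIVE/DEAD dye), nine half-log doses, GR normalized to DMSO controls and time-zero plates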
HCC1187 = experiment: area over the GR curve, 72 h; higher = more effect;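 also: Dye Drop or Deep Dye Drop imaging of viable cells in 384-well plates (Hoechst nuclei, LIVE/DEAD dye), nine half-log doses, GR normalized to DMSO controls and time-zero plates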
MDAMB175VII = experiment: area over the GR curve, 72 h; higher = more effect;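 also: Dye Drop or Deep Dye Drop imaging of viable cells in 384-well plates (Hoechst nuclei, LIVE/DEAD dye), nine half-log doses, GR normalized to DMSO controls and time-zero plates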
SKBR3 = experiment: area over the GR curve, 72 h; higher = more effect
HTERT_HME1 = experiment: area over the GR curve, 72 h; higher = more effect
CAL51 = experiment: area over the GR curve, 72 h; higher = more effect
T47D = experiment: area over the GR curve, 72 h; higher = more effect
PDX1206 = experiment: GRmax, 72 h; higher = less effect;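 also: breast cell lines in 384-well plates, nine doses across a 10^4 range, Dye Drop imaging of viable cells vs DMSO and time-zero plates, GR 0 means no net growth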
MCF10A (GM) = experiment: GRmax, 72 h; higher = less effect;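 also: breast cell lines in 384-well plates, nine doses across a 10^4 range, Dye Drop imaging of viable cells vs DMSO and time-zero plates, GR 0 means no net growth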
HCC1500 = experiment: GRmax, 72 h; higher = less effect;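 also: breast cell lines in 384-well plates, nine doses across a 10^4 range, Dye Drop imaging of viable cells vs DMSO and time-zero plates, GR 0 means no net growth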
HCC1428 = experiment: GRmax, 72 h; higher = less effect;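 also: breast cell lines in 384-well plates, nine doses across a 10^4 range, Dye Drop imaging of viable cells vs DMSO and time-zero plates, GR 0 means no net growth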
MDAMB157 = experiment: GRmax, 72 h; higher = less effect

Compound | area over the GR curve (MGH312) [GR] | area over the GR curve (EVSAT) [GR] | area over the GR curve (HCC1187) [GR] | area over the GR curve (MDAMB175VII) [GR] | area over the GR curve (SKBR3) [GR] | area over the GR curve (HTERT_HME1) [GR] | area over the GR curve (CAL51) [GR] | area over the GR curve (T47D) [GR] | GRmax, 72 h (PDX1206) [GR] | GRmax, 72 h (MCF10A (GM)) [GR] | GRmax, 72 h (HCC1500) [GR] | GRmax, 72 h (HCC1428) [GR] | GRmax, 72 h (MDAMB157) [GR]
CC(C)Nc1cc(-c2c[nH]c(C(=O)N[C@H](CO)c3cccc(Cl)c3)c2)c(Cl)cn1 [BVD523] (max 10 µM) | -0.0209 | 0.0496 | -0.297 | 0.472 | 0.124 | 0.443 | 0.0561 | 0.185 | 0.564 | 0.225 |  |  | 
NC1(C(=O)N[C@@H](CCO)c2ccc(Cl)cc2)CCN(c2nc[nH]c3nccc2-3)CC1 [AZD5363] (max 10 µM) | 1.44 | 0.728 | -0.203 | 0.622 | 0.23 | 0.188 | 0.161 | 0.623 | 0.397 | 0.641 |  |  | 
O=C1NC(=NCc2cccs2)SC1=Cc1ccc2ncccc2c1 [R0-3306] (max 10 µM) | 0.0994 | 0.115 | 0.017 | 0.239 | 0.163 | 0.0677 | 0.067 | 0.14 | 0.0387 | -0.0351 |  |  | 
NC(=O)Nc1cc(-c2cccc(F)c2)sc1C(=O)N[C@H]1CCCNC1 [AZD7762] (max 10 µM) | 0.469 | 0.253 | 0.776 | 0.816 | 0.88 | 0.435 | 0.714 | -0.0211 |  |  | -0.256 | -0.215 | -0.786
CC(=O)c1c(C)c2cnc(Nc3ccc(N4CCN(CCOCCOCCOCCNC(=O)COc5cccc6c5C(=O)N(C5CCC(=O)NC5=O)C6=O)CC4)cn3)nc2n(C2CCCC2)c1=O (stereo not drawn) [BSJ-03-123] (max 10 µM) | 0.129 | 0.194 | -0.0405 | 0.446 | 0.338 | 0.422 | 0.187 | 0.746 | -0.138 | -0.17 |  |  | 
CC(C)NC[C@@H](C(=O)N1CCN(c2ncnc3c2[C@H](C)C[C@H]3O)CC1)c1ccc(Cl)cc1 [Ipatasertib/GDC0068] (max 10 µM) | 0.933 | 0.463 | 0.286 | 0.456 | 0.152 | 0.0249 | 0.224 | 0.428 |  |  | 1.08 | 0.991 | 0.596
Nc1ccc(-c2ccc3ncc4ccc(=O)n(-c5cccc(C(F)(F)F)c5)c4c3c2)cn1 [Torin2] (max 1 µM) | 0.816 | 0.511 | 0.588 | 1.04 | 0.734 | 0.339 | 0.456 | 0.522 |  |  | -0.497 | -0.0145 | -0.216
Cc1nc(NC(=O)N2CCC[C@H]2C(N)=O)sc1-c1ccnc(C(C)(C)C(F)(F)F)c1 [Alpelisib/BYL719] (max 10 µM) | -0.015 | 0.0161 | 0.0302 | 0.563 | 0.379 | 0.112 | 0.149 | 0.455 |  |  | 0.581 | 0.853 | 0.492
O=C(CCCCCCC(=O)Nc1ccccc1)NO [Vorinostat] (max 10 µM) | 0.37 | 0.19 | 0.303 | 0.445 | 0.345 | 0.153 | 0.186 | 0.146 |  |  | -0.596 | -0.479 | -0.413
O=C(c1cc(Cc2n[nH]c(=O)c3ccccc23)ccc1F)N1CCN(C(=O)C2CC2)CC1 [Olaparib/AZD2281] (max 10 µM) | 0.0149 | 0.0599 | 0.157 | 0.0102 | 0.04 | 0.0258 | 0.116 | 0.0229 |  |  | 0.274 | 0.118 | 0.158
CNC(=O)c1cccc(-c2ccc3c(N4CCOC[C@@H]4C)nc(N4CCOC[C@@H]4C)nc3n2)c1 [AZD2014] (max 10 µM) | 1.39 | 0.75 | 0.296 | 1.35 | 0.87 | 0.601 | 0.485 | 0.959 | 0.14 | 0.211 |  |  | 
COc1cc(N2CCN(C)CC2)ccc1Nc1ncc2c(n1)N(C)c1ccccc1C(=O)N2CC(F)(F)F [FMF-03-146-1] | 0.025 | -0.0034 | -0.332 | 0.0733 | 0.0465 | 0.049 | 0.0396 | 0.0652 | 0.966 | 0.977 |  |  | 
CCOc1cc2ncc(C#N)c(Nc3ccc(OCc4ccccn4)c(Cl)c3)c2cc1NC(=O)/C=C/CN(C)C [Neratinib/HKI272] (max 3.162 µM) | 0.373 | 0.0683 | 0.181 | 1.45 | 0.891 | 0.265 | 0.091 | 0.274 |  |  | -0.287 | -0.0412 | 0.117
Cc1nc(-c2cn3c(n2)-c2ccc(-c4cnn(C(C)(C)C(N)=O)c4)cc2OCC3)n(C(C)C)n1 [Taselisib/GDC0032] (max 10 µM) | 0.886 | 0.412 | 0.497 | 1.32 | 0.807 | 0.439 | 0.546 | 0.899 |  |  | -0.233 | 0.173 | 0.211
COc1ccc2c(c1)[C@]1(C[C@H]1c1ccc3c(/C=C/c4ccc(CN5C[C@@H](C)O[C@@H](C)C5)cc4)n[nH]c3c1)C(=O)N2 | 1.19 | 0.531 | 0.535 | 0.589 | 0.711 | 0.734 | 0.562 | 0.79 | 0.0507 | 0.0912 |  |  | 
C=CCn1c(=O)c2cnc(Nc3ccc(N4CCN(C)CC4)cc3)nc2n1-c1cccc(C(C)(C)O)n1 [AZD1775] (max 10 µM) | 0.334 | 0.228 | 0.822 | 0.587 | 0.528 | 0.441 | 0.461 | 0.113 | -0.308 | 0.0319 |  |  | 
